According to publication PMC3125149, “SCYX-7158, an Orally-Active Benzoxaborole for the Treatment of Stage 2 Human African Trypanosomiasis” (PLoS Neglected Tropical Diseases, 2011):
In brackets after ≈: the same amount, converted by molar mass. Where two headings read alike, the source gives them in different places.

Legend:
[1] = test system: T. b. brucei, T. b. rhodesiense and T. b. gambiense strains; assay: Whole cell assays across representative strains (text summary of Table 1); assay type: cell-based; settings: Trypanosoma brucei; 72 h incubation; range over strains of Table 1; read-out: IC50 values across parasite strains
Method: Compounds to be tested were serially diluted in DMSO and added to 96-well plates to give final concentrations ranging from 5 to 0.01 µg/mL. T. b. brucei parasites in the log phase of growth were diluted in HMI-9 media and added to each well for a final concentration of 1×10^4 parasites per well. For the sensitivity assays using T. b. rhodesiense and T. b. gambiense, pararasites were cultured in MEM supplemented with Baltz components (8), diluted in the aforementioned culture media, and added to each well at a density of 1×10^3 cells/well. The final concentration of DMSO was 0.5% and the total volume was 100 µL/well. After a 72 h incubation, resazurin (Sigma-Aldrich, St. Louis, MO) was added to each well [20 µL of 25 mg/100 mL stock in phosphate buffered saline (PBS)] and incubated for an additional 4–6 h.[22] To assess cell viability, fluorescence was quantified using an EnVision Multilabel Plate Reader (Perkin Elmer, Waltham, MA) at an excitation wavelength of 530 nm and emission of 590 nm. Triplicate data points were averaged to generate sigmoidal dose-response curves and determine IC50 values using XLfit curve fitting software from IDBS (Guilford, UK). The IC50 is defined as the amount of compound required to decrease parasite or cell viability by 50% compared to those grown in the absence of the test compound. […]

T. b. brucei 427 = assay: Time-kill assay (ATP content, CellTiter Glo); assay type: cell-based
Method: The assessment of oxaborole-mediated killing of T. b. brucei in vitro was conducted using the CellTiter Glo kit (Promega, Inc., Madison, WI) to measure trypanosome ATP content as a real-time indicator of viability. Test compounds were serially diluted from 5 to 0.01 µg/mL into white wall-clear bottom 96-well plates (Corning Inc., Lowell, MA) containing HMI-9 media. 1×10^4 trypanosomes were added to each well. At specified intervals, the CellTiter Glo reagent was added to lyse the parasites and the plates were incubated for 10 min in the dark. Luminescence was quantified using an EnVision plate reader. All determinations were done in duplicate. Time-kill parameters were determined from plots of parasite viability versus incubation time for each concentration tested.

[2] = Brain tissue binding by rapid equilibrium dialysis; assay type: in vitro ADME; settings: mouse brain tissue; independent of concentration
Method: (§1) Binding to human or mouse plasma proteins or mouse brain homogenate was determined by rapid equilibrium dialysis (RED) (Pierce, Rockford, IL) using a 48-well plate-based format according to the manufacturer's instructions. Briefly, test compound at the required concentrations was added to fresh human or mouse plasma (Bioreclamation, Liverpool, NY) or freshly prepared mouse brain homogenate. Duplicate aliquots of each sample were transferred into the sample chambers of the RED devices, and dialysis buffer (BupH PBS) was added to the buffer chambers. The plates were sealed and incubated at 37°C for 4 h. After dialysis, samples collected from the buffer and tissue chambers were treated with ice-cold methanol (3 volumes for plasma, 4 volumes for brain) to precipitate proteins. The treated samples were centrifuged for 10 min at 3×10^3 g at 15°C. The supernatants were assayed for test compound by LC-MS/MS. Calibration standards and quality control samples were prepared in matched matrix and assayed with samples. Values for unbound and bound fractions and mass balance were calculated. Concordance of binding for each batch of plasma was confirmed by assay of warfarin, imipramine and carbamezapine. Acceptance criterion for mass balance was 70–120%.

[3] = Plasma protein binding by rapid equilibrium dialysis; assay type: in vitro ADME; settings: for fraction unbound at 4 h: read-out: unbound fraction (fu)
Method: as §1

With `CC1(C)OB(O)c2cc(NC(=O)c3ccc(F)cc3C(F)(F)F)ccc21` [SCYX-7158] the IC50 [1] was 0.07 to 0.37 µg/mL (≈ 0.191 to 1.01 µM), the reduction in viability (T. b. brucei 427; within 8 h of exposure at 1.25 µg/mL (about 2 times the MIC)) was “greater than 50%” and the parasites killed (T. b. brucei 427; within 24 h of exposure, 1.25 µg/mL) was > 99%. It also gave a fubrain [2] of ~5%, a fraction unbound at 4 h, 1 µg/mL ([3]; human plasma) of 0.013 and a fraction unbound at 4 h, 50 µg/mL ([3]; human plasma) of 0.055. The fraction unbound at 4 h ([3]; mouse, mouse plasma at the MIC (∼0.6 µg/mL)) was 0.003, the fraction unbound at 4 h ([3]; mouse, mouse plasma at ∼15 µg/mL (Cmax at steady-state)) was 0.032 and the fraction unbound at 4 h, 1 µg/mL ([3]; mouse, mouse plasma) was 0.0032. The fraction unbound at 4 h, 50 µg/mL ([3]; mouse, mouse plasma) was 0.0463.
